Measured values from US12622917B2, “High-activity Wnt pathway inhibitor compound” (ADLAI NORTYE BIOPHARMA CO., LTD., priority 2020, dated 2026).
Read-outs that look alike come from different tables or passages of the source.

Columns and labels:
[1] = system: Colo205-LUC-TCF/LEF M1 reporter cell line (Wnt pathway); assay: Colo205-LUC-TCF/LEF M1 reporter gene (luciferase) inhibition; format: cell-based; conditions: 4 hours incubation, luciferase readout
In short: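 Luminescent readout of TCF/LEF-regulated luciferase after a 4 h, 37° C compound exposure in a stable Colo205 reporter clone (10,000 cells/well). Serial 3-fold dilutions started at 20 uM; IC50 derived using DMSO-treated cells and no-cell wells as controls.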

[2] = system: Colo205; assay: Proliferation inhibition, Wnt mutant cell line Colo205; format: cell-based; conditions: Colo205, Wnt pathway-dependent, 96 hours, read-out: Antiproliferative IC50 Colo205
In short: (§1)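 Read-out is a Promega cell viability signal that rises with proliferation, taken after 96 hours of compound treatment. Compound was dosed as a 3-fold dilution series up to 20 uM final, one day after plating 1000 log-phase cells per well; IC50 is calculated against DMSO and no-cell controls.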

[3] = system: DU4475; assay: Proliferation inhibition, Wnt mutant cell line DU4475; format: cell-based; conditions: DU4475, Wnt pathway-dependent, 96 hours, read-out: Antiproliferative IC50 DU4475
In short: as §1

[4] = system: Hela; assay: Proliferation inhibition, non-Wnt mutant control cell line Hela; format: cell-based; conditions: Wnt-independent control cell line, 96 hours, read-out: Antiproliferative IC50 Hela
Text: The cell lines used in the experiment are Colo205 and DU4475 cell lines whose Wnt pathway is continuously activated and whose proliferation is Wnt pathway-dependent; while the BELA and RKO cell lines, whose Wnt pathway is not activated under normal circumstances and the proliferation is independent of Wnt pathway, as control cell lines. It is Judged that the inhibitory effect of the compound of the present invention on Wnt-dependent proliferation is not caused by other non-specific toxicity.
Treat the Colo205, Du4475, HELA and RKO cell lines cultured in their respective mediums in the logarithmic growth phase, collect the cells and prepare a uniform cell suspension of known concentration, and then add it to the 96-well cell culture plate Cell suspension, so that each well contains 1000 cells. Put it into a 5% CO2 incubator and incubate at 37° C. for 20-24 h. On the second day, the fully dissolved, 3-fold serially diluted compound was added to each cell culture well, so that the final maximum concentration in the cell culture well was 20 uM, and the culture was continued for 96 hours. In this test, Promega's cell viability detection test is used for detection. The more the cells proliferate, the stronger the final signal intensity will be. The detection instrument is SpectraMax, full wavelength mode. The wells only added with DMSO were used as positive control wells, and the wells that were not inoculated with cells were used as negative control wells. […] The IC50 value of cell proliferation inhibition was used to evaluate the inhibitory effect of the compound on the Wnt pathway and the toxic effect on normal cells (Table 2).

[5] = system: RKO; assay: Proliferation inhibition, non-Wnt mutant control cell line RKO; format: cell-based; conditions: Wnt-independent control cell line, 96 hours, read-out: Antiproliferative IC50 RKO
In short: as §1

[6] = system: NCI-H929; assay: Proliferation inhibition, NCI-H929 cell line; format: cell-based, human; conditions: NCI-H929 cells, 96 hours culture, cell viability detection, read-out: Antiproliferative IC50 NCI-H929
In short: (§2)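 Wnt-dependent proliferation in HepG2 and NCI-H929 cells, seeded at 4000 cells/well and pre-incubated 20-24 h at 37 °C. Cells were then exposed for 96 h to 3-fold serial dilutions (top final concentration 20 uM), and viability was read by signal intensity. IC50 was referenced to DMSO-only wells and cell-free wells.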

[7] = system: human myeloma cell NCI-H929 SCID xenograft; assay: Tumor growth inhibition, NCI-H929 mouse xenograft model; format: in vivo; conditions: 30 mg/kg, PO, QD x 21
Procedure: In this study, human myeloma cell NCI-H929 SCID xenograft model was used to evaluate the anti-tumor activity of compound 11 in vivo.
Female SCID were subcutaneously inoculated with human myeloma cells NCI-H929 to establish the NCI-H929 SCID xenograft model. After the tumor grew to an average tumor volume of about 80 mm^3, the tumor-bearing mice were randomly divided into two groups according to the tumor volume: the solvent-treated control group and the 30 mg/kg compound 11 group. Compound 11 was administered orally, once a day, and the administration cycle was 21 days. The tumor volume was measured every other day, and the body weight and tumor volume were measured on Day 21 (Table 4 and FIG. 1).

[8] = system: HepG2; assay: Proliferation inhibition, HepG2 cell line; format: cell-based; conditions: Homo sapiens; HepG2 cells, 96 hours culture, cell viability detection; read-out: Antiproliferative IC50 HepG2
In short: as §2

IC50 [1] | IC50 [2] | IC50 [4] | IC50 [6] | IC50 ([2]; Homo sapiens, COLO 205) | IC50 ([4]; Homo sapiens) | IC50 ([6]; Homo sapiens) | IC50 [8] | Compound | IC50 [3] | IC50 [5] | % T/CRTV Day 21 [7] | % TGITW Day 21 [7] | % TGItv Day 21 [7] | RTV Day 21 [7] | Tumor weight Day 21 [7] | IC50 ([3]; Homo sapiens, DU-4475) | IC50 ([5]; Homo sapiens)
61 nM | 32 nM | > 10000 nM | 55 nM | – | – | – | – | (S)-4,5-dimethyl-2-(((6-((6-(trifluoromethyl)pyridin-3-yl)oxy)pyridin-3-yl)methyl)amino)-4,5,9,10-tetrahydro-6H,8H-pyrido[3,2,1-de]pteridin-6-one [Example 11] | 37 nM | > 10000 nM | 1.59% | 98.86% | 98.42% | 0.33 | 0.023 g | – | –
31 nM | – | – | – | 21 nM | > 10000 nM | 45 nM | 44 nM | [2H]C([2H])([2H])N1c2nc(NCc3ccc(Oc4ccc(C(F)(F)F)nc4)nc3)nc3c2N(CCC3)C(=O)[C@@H]1C [105 (W199)] | – | – | – | – | – | – | – | 31 nM | > 10000 nM
21 nM | – | – | – | 20 nM | > 10000 nM | 94 nM | 40 nM | O=C1[C@@H]2CCCN2c2nc(NCc3ccc(Oc4ccc(C(F)(F)F)nc4)nc3)nc3c2N1CCC3 [111 (W241), (S)-2-(((6-((6-(trifluoromethyl)pyridin-3-yl)oxo)pyridin-3-yl)methyl)amino)-5,6,8a,9, 10,11-hexahydro-4H,8H-pyrido[3,2,1-de]pyrrolo[2,1-h]pteridin-8-one] | – | – | – | – | – | – | – | 37 nM | > 10000 nM
